Assay results from PMC11149917, “Translational and Therapeutic Evaluation of RAS-GTP Inhibition by RMC-6236 in RAS-Driven Cancers” (Cancer Discovery, 2024).
pEC50, pKd: −log10 of the molar value. Values joined by “and” are separate entries in the source; they are usually repeats but may differ in a detail not shown here. Equal entries are not always repeated.

Columns and labels:
[1] = system: DUSP6 mRNA in NCI-H441 xenograft tumors; assay: In vivo PD by DUSP6 qPCR and PK/PD relationship; design: species or system mouse; details: NCI-H441 xenograft tumor
Protocol: (§1) Tumor-bearing animals were randomized and assigned into groups (n = 1–10/group). The vehicle at 10 mL/kg or RMC-6236 at indicated doses was administered via oral gavage daily, and animals were treated for 28 days, or up to 90 days if PFS was being assessed. […] For single-dose PKPD study, mice were randomized and assigned into groups (n = 3/dose/time point). A single dose of RMC-6236 was administered orally at either 3, 10, or 25 mg/kg. Blood and tissues, including the tumor, brain, colon, ear skin, and muscle, were harvested at indicated time points. Whole blood was collected in K2EDTA Microtainer tubes, incubated for 5 minutes, and snap-frozen in liquid nitrogen. The tissue was either fixed in 10% formalin or snap-frozen in liquid nitrogen for further analysis.
(§2) RNA was extracted from at least 20 mg of tissue using an RNeasy Mini Kit (Qiagen, 74104) and a High-Throughput Tissue grinder following the manufacturer's protocol. Reverse transcription was carried out using High-Capacity cDNA Reverse Transcription Kit (ABI, 4368814) according to the manufacturer's protocol. The cDNA product was used for qPCR analysis using TaqMan Gene-Expression Master Mix (ABI, 4369016). TaqMan primer probes specific to DUSP6 (human—Hs00737962_m1, murine—Mm00518185_m1, FAM-MGB) and 18S (RNA18S1; human—Hs99999901_s1, murine—Mm03928990_g1, FAM-MGB, used as an internal control gene) were used to detect the levels from each sample in duplicates using a 10 µL final reaction volume in a 384-well clear optical reaction plate. For qPCR, Ct values of DUSP6 and 18S were obtained for analysis. DUSP6 Ct value was normalized to 18S, and then the mean relative mRNA expression levels of each group were normalized to the vehicle control group. Values were plotted as relative change in mRNA expression compared with vehicle. Means ± SEM were shown.
(§3) Concentrations of RMC-6236 in tumor or normal tissues and percentage of DUSP6 inhibition as compared with the vehicle control from individual animals were collected and analyzed post a single dose of RMC-6236 ranging from 0.3 to 100 mg/kg (Supplementary Table S6). A 3-parameter sigmoidal exposure–response model was fitted to the data in GraphPad Prism to derive EC50 and EC90 values.

[2] = system: DUSP6 mRNA in KP-4 xenograft tumors; assay: In vivo PD by DUSP6 qPCR and PK/PD relationship; design: species or system mouse
Protocol: as §1, §2, §3

CypA = CypA (Homo sapiens, UniProt P62937); assay: CypA binding affinity (KD1), SPR; details: average of 18 replicate experiments; read-out: affinity for CypA protein (KD1)
Protocol: The binding affinity of compounds for CypA was assessed by surface plasmon resonance (SPR) on Biacore 8K instrument. AviTag-CypA was immobilized on a streptavidin sensor chip, and varying compound concentrations were flowed over the chip in assay buffer (10 mmol/L HEPES-NaOH pH 7.4, 150 mmol/L NaCl, 0.005% v/v Surfactant P20, 2% v/v DMSO). The SPR sensograms were fit using either a steady-state affinity model or a 1:1 binding (kinetic) model to assess the KD1 for CypA binding.

Structure (SMILES): CCn1c(-c2cc(N3CCN(C)CC3)cnc2[C@H](C)OC)c2c3cc(ccc31)-c1csc(n1)C[C@H](NC(=O)[C@H]1C[C@@H]1C)C(=O)N1CCC[C@H](N1)C(=O)OCC(C)(C)C2 [RMC-6236]
- % inhibition of DUSP6 vs control ([1]; study NCI-H441#10, 0.3 mg/kg, 48h): 38.4266% and 52.8484% and 73.0122%
- % inhibition of DUSP6 vs control ([1]; study NCI-H441#10, 1 mg/kg, 48h): 52.6847% and 48.936% and 65.7214%
- % inhibition of DUSP6 vs control ([1]; study NCI-H441#10, 10 mg/kg, 8h): 85.6375% and 96.6614% and 94.5007%
- % inhibition of DUSP6 vs control ([1]; study NCI-H441#10, 10 mg/kg, 24h): 85.7861% and 76.2602% and 81.9462%
- % inhibition of DUSP6 vs control ([1]; study NCI-H441#10, 10 mg/kg, 48h): 44.699% and 49.9869% and 60.6243%
- % inhibition of DUSP6 vs control ([1]; study NCI-H441#13, 0.3 mg/kg, 8h): 54.8539% and 55.936% and 78.3465%
- % inhibition of DUSP6 vs control ([1]; study NCI-H441#13, 1 mg/kg, 2h): 47.4169% and 56.5427% and 69.4833%
- DUSP6 mRNA(% normalized to control) ([2]; KP-4 (25 mg/kg x 31d), 8h): 3.6%
- DUSP6 mRNA(% normalized to control) ([2]; KP-4 (25 mg/kg x 31d), 24h): 36.2%
- DUSP6 mRNA(% normalized to control) ([2]; KP-4 (25 mg/kg), 2h): 115.7%
- DUSP6 mRNA(% normalized to control) ([2]; KP-4 (25 mg/kg), 4h): 18.9%
- DUSP6 mRNA(% normalized to control) ([2]; KP-4 (25 mg/kg), 8h): 10.7%
- DUSP6 mRNA(% normalized to control) ([2]; KP-4 (25 mg/kg), 12h): 4.3%
- DUSP6 mRNA(% normalized to control) ([2]; KP-4 (25 mg/kg), 24h): 37.1%
- DUSP6 mRNA(% normalized to control) ([2]; KP-4 (25 mg/kg), 48h): 48.3%
- % inhibition of DUSP6 vs control ([2]; KP-4, study KP-4 #3, 25 mg/kg, 4h): 83.13% and 97.7% and 98.74%
- % inhibition of DUSP6 vs control ([2]; KP-4, study KP-4 #3, 25 mg/kg, 8h): 99.27% and 98.8% and 98.46%
- % inhibition of DUSP6 vs control ([2]; KP-4, study KP-4 #3, 25 mg/kg, 24h): 84.47% and 92.71% and 89.79%
- % inhibition of DUSP6 vs control ([2]; KP-4, study KP-4 #3, 50 mg/kg, 4h): 99.82% and 89.5% and 98.09%
- % inhibition of DUSP6 vs control ([2]; KP-4, study KP-4 #3, 50 mg/kg, 8h): 99.77% and 99.81% and 99.62%
- % inhibition of DUSP6 vs control ([2]; KP-4, study KP-4 #3, 50 mg/kg, 24h): 96.99% and 96.44% and 98.05%
- % inhibition of DUSP6 vs control ([2]; KP-4, study KP-4 #3, 50 mg/kg, 48h): 83.3% and 81.21% and 85.91%
- % inhibition of DUSP6 vs control ([2]; KP-4, study KP-4 #4, 25 mg/kg, 8h): 95.62% and 96.57% and 90.57%
- % inhibition of DUSP6 vs control ([2]; KP-4, study KP-4 #4, 25 mg/kg, 24h): 87.48% and 87.9% and 94.68%
- % inhibition of DUSP6 vs control ([2]; KP-4, study KP-4 #4, 40 mg/kg, 8h): 96.06% and 97.31% and 95.84%
- % inhibition of DUSP6 vs control ([2]; KP-4, study KP-4 #4, 40 mg/kg, 24h): 75.38% and 93.78% and 96.21%
- % inhibition of DUSP6 vs control ([2]; KP-4, study KP-4 #4, 100 mg/kg, 8h): 99.67% and 97.58% and 99.05%
- % inhibition of DUSP6 vs control ([2]; KP-4, study KP-4 #4, 100 mg/kg, 24h): 98.22% and 98.9% and 97.78%
- % inhibition of DUSP6 vs control ([2]; KP-4, study KP-4 #4, 100 mg/kg, 48h): 68.4% and 89.83% and 80.41%
- % inhibition of DUSP6 vs control ([2]; KP-4, study KP-4 #5, 25 mg/kg, 4h): 96.1077% and 90.078% and 87.6997%
- % inhibition of DUSP6 vs control ([2]; KP-4, study KP-4 #5, 25 mg/kg, 8h): 91.9687% and 92.3226% and 98.2581%
- % inhibition of DUSP6 vs control ([2]; KP-4, study KP-4 #5, 25 mg/kg, 24h): 65.5692% and 78.5839% and 66.1607%
- % inhibition of DUSP6 vs control ([2]; KP-4, study KP-4 #6, 3 mg/kg, 8h): 59.13% and 61.2% and 53.53%
- % inhibition of DUSP6 vs control ([2]; KP-4, study KP-4 #6, 3 mg/kg, 24h): 48.26% and 46.44% and 45.31%
- % inhibition of DUSP6 vs control ([2]; KP-4, study KP-4 #6, 3 mg/kg, 48h): 0% and 3.79%
- % inhibition of DUSP6 vs control ([2]; KP-4, study KP-4 #6, 10 mg/kg, 4h): 74.13% and 85.85% and 59.13%
- % inhibition of DUSP6 vs control ([2]; KP-4, study KP-4 #6, 10 mg/kg, 8h): 70.29% and 97.17% and 70.69%
- % inhibition of DUSP6 vs control ([2]; KP-4, study KP-4 #6, 10 mg/kg, 48h): 8.03% and 13.59% and 9.61%
- % inhibition of DUSP6 vs control ([2]; KP-4, study KP-4 #6, 25 mg/kg, 4h): 93.33% and 56.04% and 93.99%
- % inhibition of DUSP6 vs control ([2]; KP-4, study KP-4 #6, 25 mg/kg, 8h): 85.45% and 84.94% and 97.45%
- % inhibition of DUSP6 vs control ([2]; KP-4, study KP-4 #6, 25 mg/kg, 12h): 93.75% and 94.27% and 98.93%
- % inhibition of DUSP6 vs control ([2]; KP-4, study KP-4 #6, 25 mg/kg, 48h): 63.92% and 39.53%
- pEC50 ([2]; Mus musculus, KP-4 xenograft tumors, read-out: EC50, inhibition of DUSP6 expression vs RMC-6236 concentration (PK/PD relationship)): 6.34
- EC90 ([2]; Mus musculus, KP-4 xenograft tumors, read-out: EC90, inhibition of DUSP6 expression vs RMC-6236 concentration (PK/PD relationship)): 2.89 µM
